The source of these data is patent publication US11213499B1, “Use of 3,3′-diselenodipropionic acid (DSePA) as an anticancer agent” (Secretary, Department of Atomic Energy, priority 2020, dated 2022).

For data set [1] the following is noted: mice; cited from earlier work.
Data set [2] has as its system Vero (Monkey kidney transformed epithelial cell line (normal)). As to the kind of experiment: SRB/MTT assay, normal Vero cells. The class given is cell-based. Here is the method: (§1) The anticancer effect of DSePA was evaluated using a panel of twenty-five human cancer cell lines of different tissue origins. Cells were treated with the increasing concentrations (0.1-100 μM) of DSePA for 48 h and viability was monitored by (Sulforhodamine B) SRB assay or MTT assay.
(§2) Cell culture and DSePA synthesis—DSePA was synthesized and characterized as described in our previous reports. Cell lines were cultured in growth medium (DMEM/RPMI) supplemented with 10% FBS, 100 U/ml penicillin and 100 μg/ml streptomycin at 37° C. in a humidified 5% CO2 environment. The stock solution of DSePA was prepared fresh in cell culture medium and diluted with the same to achieve the desired concentrations.
(§3) SRB/MTT Assay—To evaluate the anti-proliferative effect of DSePA, Cells (˜5×10^3) suspended in 100 μl of complete culture medium were seeded in each well of 96 well plates. The cells were allowed to attach and grow for 24 h, treated with desired concentrations of DSePA dissolved in culture medium for 48 h and then processed for SRB/MTT assay as described in literature. The percentage (%) cytotoxicity was calculated from the decrease in absorbance as compared to that of control group.
A general note: Formazan colour is commonly taken as a measure of viable cells.

Data set [3] deals with CHO (Chinese Hamster Ovary (normal)). Put plainly: SRB/MTT assay, normal CHO cells. The class given is cell-based. Here is the method: as §1, §2, §3
The conditions of data set [4]: rat; cited from earlier work.
Data set [5] has as its system WI-38 (Human normal lung fibroblast). Put plainly: SRB/MTT assay, normal WI-38 cells. The class given is cell-based. Here is the method:
as §1, §2, §3

The subject of data set [6] is H460 (Human non-small cell lung adenocarcinoma). Put plainly: SRB/MTT anti-proliferative assay, H460. The class given is cell-based. The settings on record: 48 hours treatment, read-out: GI50 (Concentration of drug causing 50% inhibition of cell growth). Here is the method: as §1, §2, §3

Molecules are shown by their SMILES. Read-outs that look alike come from different tables or passages of the source.

On to `O=C(O)CC[Se][Se]CCC(=O)O` [DSePA, 3,3′-diselenodipropionic acid], for which the figures for the “estimated median oral Lethal dose (LD50) cut-off” value in data set [1] and in data set [4] were 200 mg/kg and 25 mg/kg, respectively. Besides, the GI50 in data set [2] (Primates, Vero normal cells, 48 hours treatment, SRB/MTT assay, read-out: GI50 (Concentration of drug causing 50% inhibition of cell growth)) was greater than 100 µM; in data set [3] (Cricetulus griseus, CHO normal cells, 48 hours treatment, SRB/MTT assay, read-out: GI50 (Concentration of drug causing 50% inhibition of cell growth)), greater than 100 µM; in data set [5] (Homo sapiens, WI-38 normal cells, 48 hours treatment, SRB/MTT assay, read-out: GI50 (Concentration of drug causing 50% inhibition of cell growth)), greater than 100 µM; in data set [6], 8 µM; in data set [6] (Homo sapiens, NCI-H460, 48 h), no more than 10 µM. The “toxicity in normal cell types” value was “did not show toxicity” in data set [2] (Vero, 0.1-100 μM, 48 h); “did not show toxicity” in data set [3] (CHO, 0.1-100 μM, 48 h); “did not show toxicity” in data set [5] (WI-38, 0.1-100 μM, 48 h).
